# Laboratory results taken from US20190032104A1, “RAPID ANTIMICROBIAL SUSCEPTIBILITY TESTING USING HIGH-SENSITIVITY DIRECT DETECTION METHODS” (T2 Biosystems, Inc., priority 2016, published 2019).
# Assays:
# [1] = system: S. aureus isolate; assay: growth on chromogenic media (e.g., CHROMAGAR MRSA); assay type: cell-based; details: Example 3
# Method: (§1) A blood sample is obtained from a subject suspected to be suffering from bacteremia. A portion of the blood sample is used to inoculate a blood culture bottle (e.g., a BD BACTEC™ aerobic blood culture bottle). The blood culture bottles are incubated as recommended by the manufacturer. In parallel, an aliquot of the blood sample obtained from the patient is subjected to a T2MR-based detection method, for example, the method described in Example 22 of WO 2012/054639 in conjunction with a T2Dx® device. In this example, the T2MR-based method identifies S. aureus as being present in the blood sample within 3 hours from the start of the assay.
# (§2) Next, based on the identification of S. aureus in the blood sample, the blood culture bottle is sampled by lysis filtration or lysis centrifugation followed by plating of the cell pellet on to chromogenic media (e.g., CHROMAGAR™ MRSA (Chromagar)) or directly on to an agar-based antimicrobial gradient test (e.g., an ETEST®) in order to test whether the S. aureus isolate from the subject's blood is sensitive to oxacillin, vancomycin, trimethoprim-sulfamethoxazole (BACTRIM™), doxycycline, daptomycin, and linezolid. Additionally, T2MR-based real-time PCR is performed as described, for example, in Example 19 of WO 2012/054639, is used to determine the expression level of antibiotic resistance markers such as mecA. […]
# [2] = system: Candida albicans; assay: administration to the subject with Candidemia (Candida albicans); assay type: in vivo, human
# [3] = system: S. aureus isolate; assay: agar-based antimicrobial gradient test (e.g., ETEST); assay type: cell-based; details: S. aureus isolate from subject's blood, Example 3
# Method: as §1, §2
# [4] = system: S. aureus; assay: administration to the subject with bacteremia (S. aureus); assay type: in vivo, human
# [5] = system: Candida glabrata; assay: administration to the subject with Candidemia (Candida glabrata); assay type: in vivo, human; details: appropriate dose, subject with Candidemia (C. glabrata), Example 4
# [6] = system: C. glabrata isolate; assay: T2MR-based AST, real-time PCR of housekeeping gene as proxy for growth; assay type: cell-based, Candida glabrata; details: media with pre-determined levels of agent, Example 4
# Method: A blood sample is obtained from a subject suspected to be suffering from Candidemia. The blood sample obtained from the patient is subjected to a T2MR-based detection method, for example, the method described in Example 22 of WO 2012/054639 in conjunction with a T2Dx® device. Briefly, PCR is performed using a forward primer that includes the oligonucleotide sequence 5′-GGCATGCCTGTTTGAGCGTC-3′ (SEQ ID NO: 13) and a reverse primer that includes the oligonucleotide sequence 5′-GCTTATTGATATGCTTAAGTTCAGCGGGT-3′ (SEQ ID NO: 14). Magnetic particles conjugated individually to the capture probes described in Table 1 are used to test for the presence of Candida albicans, Candida glabrata, Candida krusei, Candida parapsilosis, and Candida tropicalis. In this example, Candida glabrata is identified as being present in the subject's blood sample within 3 h from the start of the assay.
# Based on the T2MR-based detection and identification of Candida glabrata in the subject's blood, a subsequent blood draw is taken directly to media that contain either no antimicrobial agents or pre-determined levels of fluconazole, itraconazole, amphotericin B, or caspofungin. […]
# [7] = system: Candida albicans isolate; assay: AST testing of isolated colonies, agar-based AST method (e.g., ETEST) or full panel AST device (e.g., VITEK 2); assay type: cell-based; details: Candida albicans isolate from subject's blood, Example 2
# Method: as §1, with “Candidemia.” for “bacteremia.”, “as” for “the method”, “1 above.” for “22 of WO 2012/054639 in conjunction with a T2Dx® device.”, “Candida albicans” for “S. aureus”, “sample.” for “sample within 3 hours from the start of the assay.”
# Next, based on the identification of Candida albicans in the blood sample, the blood culture bottle is sampled by lysis filtration or lysis centrifugation followed by plating of the cell pellet on to Samouraud Glucose media, thereby encouraging growth of Candida albicans and early growth of the isolated colonies. These colonies are subjected to AST testing, either using an agar-based AST method (e.g., ETEST®) or a full panel AST device (e.g., VITEK® 2). Several appropriate anti-fungal drugs are tested, e.g., fluconazole, itraconazole, amphotericin B, micafungin, voriconazole, and caspofungin.
# [8] = system: C. albicans isolate; assay: T2MR-based AST, real-time PCR of housekeeping gene as proxy for growth; assay type: cell-based, Candida albicans; details: media with pre-determined levels of agent, Example 5
# Method: A blood sample is obtained from a subject suspected to be suffering from Candidemia. The blood sample obtained from the patient is subjected to a T2MR-based detection method, for example, as described above in Example 4. In this example, Candida albicans is identified as being present in the subject's blood sample within 3 h from the start of the assay.
# Based on the T2MR-based detection and identification of Candida albicans in the subject's blood, a subsequent blood draw is taken directly to media that contain either no antimicrobial agents or pre-determined levels of antimicrobial agents such as fluconazole, itraconazole, amphotericin B, and caspofungin. Aliquots are taken from these media at time intervals, and the aliquots are subjected to T2MR-based real-time PCR is performed as described, for example, in Example 19 of WO 2012/054639, to detect the expression level of the multiple drug resistance gene MDR1 as well as a housekeeping gene such as beta-actin (ACT1) as a proxy for growth of the C. albicans isolate in the media. […] A growth curve is made by plotting the T2 signal over time.
# [9] = system: S. aureus isolate; assay: T2MR-based AST with direct cell detection by vancomycin-conjugated magnetic nanoparticles; details: media with pre-determined levels of agent, Example 6
# Method: as §1, with “In one such example, a blood” for “A blood”
# Based on the T2MR-based detection and identification of S. aureus in the subject's blood, a subsequent blood draw is taken directly to media that contain either no antimicrobial agents or pre-determined levels of oxacillin, vancomycin, trimethoprim-sulfamethoxazole (BACTRIM™), doxycycline, daptomycin, or linezolid. Aliquots are taken from these media at time intervals, and the aliquots are subjected to T2MR-based direct detection of S. aureus cells, as described, for example, in Example 4 of International Patent Publication No. WO 2012/129281. S. aureus cells are detected by labeling with magnetic nanoparticles. […]
compound,measurement,setting,value
COc1cccc(OC)c1C(=O)N[C@@H]1C(=O)N2[C@@H]1SC(C)(C)[C@@H]2C(=O)O [methicillin],"antimicrobial resistance of the isolate, based on the color of the colonies",[1],resistant
C[C@@H]1[C@H](O)[C@@H](C)/C=C/C=C/C=C/C=C/C=C/C=C/C=C/[C@H](O[C@@H]2O[C@H](C)[C@@H](O)[C@H](N)[C@@H]2O)C[C@@H]2O[C@](O)(C[C@@H](O)C[C@@H](O)[C@H](O)CC[C@@H](O)C[C@@H](O)CC(=O)O[C@H]1C)C[C@H](O)[C@H]2C(=O)O [amphotericin B],treatment outcome in the subject after switch from fluconazole,"[2]; MDR1 expression elevated after fluconazole, therapy switched, Example 5",successful in treating the subject
trimethoprim-sulfamethoxazole,antimicrobial susceptibility of the isolate,[3],sensitive
same,treatment outcome in the subject,[4],treating the bacteremia
OC(Cn1cncn1)(Cn1cncn1)c1ccc(F)cc1F [fluconazole],treatment outcome in the subject,[5],treating the subject's Candidemia
same,"antimicrobial susceptibility of the isolate, growth curve of T2 signal over time",[6],particularly sensitive
same,antimicrobial susceptibility of the isolate,[7],particularly sensitive
same,"antimicrobial susceptibility of the isolate, growth curve of T2 signal over time",[8],particularly sensitive
same,treatment outcome in the subject,"[2]; appropriate dose, subject with Candidemia (C. albicans)",treating the subject's Candidemia
CN[C@H](CC(C)C)C(=O)N[C@H]1C(=O)N[C@@H](CC(N)=O)C(=O)N[C@H]2C(=O)N[C@H]3C(=O)N[C@H](C(=O)N[C@H](C(=O)O)c4cc(O)cc(O)c4-c4cc3ccc4O)[C@H](O)c3ccc(c(Cl)c3)Oc3cc2cc(c3O[C@@H]2O[C@H](CO)[C@@H](O)[C@H](O)[C@H]2O[C@H]2C[C@](C)(N)[C@H](O)[C@H](C)O2)Oc2ccc(cc2Cl)[C@H]1O [vancomycin],"antimicrobial susceptibility of the isolate, growth curve of T2 signal over time",[9],particularly sensitive
same,treatment outcome in the subject,[4],treating the subject's bacteremia
